Assay results taken from US20140228286A1, “SPECIFIC PDE4B-INHIBITORS FOR THE TREATMENT OF DIABETES MELLITUS” (BOEHRINGER INGELHEIM INTERNATIONAL GMBH, priority 2013, published 2014).

biological target: T1, PDE4B (Homo sapiens, UniProt Q07343); assay: PDE4B Scintillation Proximity (SPA) Assay; format: biochemical; conditions: PDE4B active site fragment amino acids 152-484; [3H]cAMP; 30° C., one hour; read-out: Experimentally determined IC50-value for PDE4B inhibition
T1 construct: active site fragment comprising the amino acids 152-484
Description: The IC50-values of the compounds of the invention (Examples 1.1 to 1.47) with respect to their PDE4B-inhibiting ability have been determined with a Scintillation Proximity (SPA) Assay (GE Healthcare, No. TRKQ7090). The Scintillation Proximity (SPA) Assay is based on the detection of the different affinities of the cyclic 3′-5′adenosine monophosphate (cAMP, low affinity) and the linear 5′-adenosine monophosphate (AMP, high affinity) to yttrium-silicate-scintillator beads. The cAMP-specific phosphodiesterase (PDE) PDE4B cleaves the 3′-phosphodiester bond of the tritium-labelled-[^3H]cAMP to the [^3H]5′-AMP. This [^3H]5′-AMP associates with the scintillator beads because of their higher affinity and causes scintillations (light flashes) which can be measured in a Wallac Microbeta Scintillation Counter.
10 μl of a [^3H]cAMP-solution (0.05 μCi in H2O, 10-30 Ci/mmol) are added to 89 μl of a PDE4B-enzyme-solution (active site fragment comprising the amino acids 152-484; 0.15-0.18 ng) in assay buffer (50 mM Tris HCl pH 7.5; 8.3 mM MgCl2; 1,7 mM ethylene glyclol tetraacetic acid (EGTA); 0.25 mg/ml bovine serum albumin (BSA)) and this mixture is incubated at 30° C. for one hour
a) without the compound to be tested (in the presence of 1 μl dimethylsulfoxide (DMSO), corresponding to 1% DMSO) and b) in the presence of the compound to be tested in a concentration of 125 μM, 25 μM, 5 μM, 1 μM, 200 nM, 40 nM, 8 nM, 1.6 nM, 0.32 nM, 0.064 nM, 0.0128 nM (dilution series in 5er-steps beginning from 125 μM until 0.0128 nM, in the presence of 1% DMSO).
After this incubation the reaction is stopped by the addition of 50 μl of bead-solution (500 mg beads/35 ml H2O, 18 mM zinc sulfate). In the following 45 minutes the beads have the opportunity to form a sediment. After that the scintillations are measured in the scintillation counter. If the tested compound is able to inhibit the enzymatic activity of the PDE4B-enzyme, less [^3H]AMP depending on the concentration of the tested compound is produced and less scintillations are measurable. […] The IC50-value stands for the compound concentration at which the PDE4B enzyme activity is inhibited to a half maximal value. Therefore the lower the IC50-value is the better is the PDE4B inhibition.

T1 sequence (Q07343 324-656): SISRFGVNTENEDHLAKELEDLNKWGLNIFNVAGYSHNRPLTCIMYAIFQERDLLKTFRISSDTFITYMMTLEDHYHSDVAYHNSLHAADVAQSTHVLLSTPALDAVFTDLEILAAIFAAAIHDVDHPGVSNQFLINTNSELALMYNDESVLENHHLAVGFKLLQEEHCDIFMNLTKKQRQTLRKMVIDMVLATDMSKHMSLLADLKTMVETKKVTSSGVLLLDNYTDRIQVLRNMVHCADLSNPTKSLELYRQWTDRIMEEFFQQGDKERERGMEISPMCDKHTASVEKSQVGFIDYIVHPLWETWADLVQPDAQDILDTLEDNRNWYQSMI

| IC50 | Compound |
| --- | --- |
| 1.8 nM | CC(C)(O)C1(Nc2nc(N3CCC(c4ccc(Cl)cc4)CC3)nc3c2[S+]([O-])CC3)CC1 (stereo not drawn) [Example 1.25, 2-(1-{2-[4-(4-chlorophenyl)-piperidin-1-yl]-5-oxo-6,7-dihydro-5H-5λ^4-thieno[3,2-d]pyrimidin-4-ylamino}-cyclopropyl)-propan-2-ol] |
| 38 nM | Cn1cc(C2CCN(c3nc4c(c(NC5CCOCC5)n3)[S+]([O-])CC4)CC2)c2cc(C(C)(C)C)ccc21 (stereo not drawn) [Example 1.26, {2-[4-(5-tert-butyl-1-methyl-1H-indol-3-yl)-piperidin-1-yl]-5-oxo-6,7-dihydro-5H-5λ^4-thieno[3,2-d]pyrimidin-4-yl}-(tetrahydropyran-4-yl)-amine] |
| 21 nM | Cn1nc(C2CCN(c3nc4c(c(NC5CCOCC5)n3)[S+]([O-])CC4)CC2)cc1-c1ccco1 (stereo not drawn) [Example 1.27] |
| 0.19 nM | CN1C[C@@H](Nc2nc(N3CCC(Oc4ccc(C5=NCCO5)cc4)CC3)nc3c2[S+]([O-])CC3)CCC1=O (stereo partly drawn) [Example 1.28, (S)-5-(2-{4-[4-(4,5-dihydrooxazol-2-yl)-phenoxy]-piperidin-1-yl}-5-oxo-6,7-dihydro-5H-5λ^4-thieno[3,2-d]pyrimidin-4-ylamino)-1-methylpiperidin-2-one] |
| 1.7 nM | Cn1nc(-c2ccco2)cc1C1CCN(c2nc3c(c(NC4CCOCC4)n2)[S+]([O-])CC3)CC1 (stereo not drawn) [Example 1.29, {2-[4-(5-furan-2-yl-2-methyl-2H-pyrazol-3-yl)-piperidin-1-yl]-5-oxo-6,7-dihydro-5H-5λ^4-thieno[3,2-d]pyrimidin-4-yl}-(tetrahydropyran-4-yl)-amine] |
| 33.4 nM | Cn1c(C2CCN(c3nc4c(c(NC5CCOCC5)n3)[S+]([O-])CC4)CC2)nc2cnccc21 (stereo not drawn) [Example 1.30, {2-[4-(1-methyl-1H-imidazo[4,5-c]pyridin-2-yl)-piperidin-1-yl]-5-oxo-6,7-dihydro-5H-5λ^4-thieno[3,2-d]pyrimidin-4-yl}-(tetrahydropyran-4-yl)-amine] |
| 5.7 nM | COCC(=O)NCC1(c2ccccc2)CCN(c2nc3c(c(NC4CCOCC4)n2)[S+]([O-])CC3)CC1 (stereo not drawn) [Example 1.31, 2-methoxy-N-{1-[5-oxo-4-(tetrahydropyran-4-ylamino)-6,7-dihydro-5H-5λ^4-thieno[3,2-d]pyrimidin-2-yl]-4-phenylpiperidin-4-ylmethyl}-acetamide] |
| 8.5 nM | CN(C(=O)c1ccc(C2CCN(c3nc4c(c(NC5CCOCC5)n3)[S+]([O-])CC4)CC2)cc1)C1CC1 (stereo not drawn) [Example 1.32, N-cyclopropyl-N-methyl-4-{1-[5-oxo-4-(tetrahydropyran-4-ylamino)-6,7-dihydro-5H-5λ^4-thieno[3,2-d]pyrimidin-2-yl]-piperidin-4-yl}-benzamide] |
| 7.5 nM | CN(C(=O)c1ccc(OC2CCN(c3nc4c(c(NC5CCOCC5)n3)[S+]([O-])CC4)CC2)cc1)C1CC1 (stereo not drawn) [Example 1.33, N-cyclopropyl-N-methyl-4-{1-[5-oxo-4-(tetrahydropyran-4-ylamino)-6,7-dihydro-5H-5λ^4-thieno[3,2-d]pyrimidin-2-yl]-piperidin-4-yloxy}-benzamide] |
| 8 nM | [O-][S+]1CCc2nc(N3CCC(Oc4ccncc4)CC3)nc(NC3CCOCC3)c21 (stereo not drawn) [Example 1.34, {5-oxo-2-[4-(pyridin-4-yloxy)-piperidin-1-yl]-6,7-dihydro-5H-5λ^4-thieno[3,2-d]pyrimidin-4-yl}-(tetrahydropyran-4-yl)-amine] |
| 0.4 nM | Cc1oc(C2CCN(c3nc4c(c(N[C@H]5CCC(=O)N(C)C5)n3)[S+]([O-])CC4)CC2)nc1-c1ccccc1 (stereo partly drawn) [Example 1.36, (S)-1-methyl-5-{2-[4-(5-methyl-4-phenyloxazol-2-yl)-piperidin-1-yl]-5-oxo-6,7-dihydro-5H-5λ^4-thieno[3,2-d]pyrimidin-4-ylamino}-piperidin-2-one] |
| 3.5 nM | Cc1oc(C2CCN(c3nc4c(c(NC5(CO)CC5)n3)[S+]([O-])CC4)CC2)nc1-c1ccccc1 (stereo not drawn) [Example 1.37, (1-{2-[4-(5-methyl-4-phenyloxazol-2-yl)-piperidin-1-yl]-5-oxo-6,7-dihydro-5H-5λ^4-thieno[3,2-d]pyrimidin-4-ylamino}-cyclopropyl)-methanol] |
| 0.2 nM | CN1C[C@@H](Nc2nc(N3CCC(c4nc(-c5ccccc5)c(-c5ccccc5)o4)CC3)nc3c2[S+]([O-])CC3)CCC1=O (stereo partly drawn) [Example 1.38, (S)-5-{2-[4-(4,5-diphenyloxazol-2-yl)-piperidin-1-yl]-5-oxo-6,7-dihydro-5H-5λ^4-thieno[3,2-d]pyrimidin-4-ylamino}-1-methylpiperidin-2-one] |
| 1.8 nM | [O-][S+]1CCc2nc(N3CCC(CO)(c4ccc(Cl)cc4)CC3)nc(NC3CCOCC3)c21 (stereo not drawn) [Example 1.39, {4-(4-chlorophenyl)-1-[5-oxo-4-(tetrahydropyran-4-ylamino)-6,7-dihydro-5H-5λ^4-thieno[3,2-d]pyrimidin-2-yl]-piperidin-4-yl}-methanol] |
| 0.6 nM | Cc1nc(C2CCN(c3nc4c(c(NC5(CO)CC5)n3)[S+]([O-])CC4)CC2)oc1-c1ccc(Cl)cc1 (stereo not drawn) [Example 1.40, [1-(2-{4-[5-(4-chlorophenyl)-4-methyloxazol-2-yl]-piperidin-1-yl}-5-oxo-6,7-dihydro-5H-5λ^4-thieno[3,2-d]pyrimidin-4-ylamino)-cyclopropyl]-methanol] |
| 6.7 nM | [O-][S+]1CCc2nc(N3CCC(O)(c4ccc(Cl)cc4)CC3)nc(NC3CCOCC3)c21 (stereo not drawn) [Example 1.41, 4-(4-chlorophenyl)-1-[5-oxo-4-(tetrahydropyran-4-ylamino)-6,7-dihydro-5H-5λ^4-thieno[3,2-d]pyrimidin-2-yl]-piperidin-4-ol] |
| 3.8 nM | COC1(c2ccc(Cl)cc2)CCN(c2nc3c(c(NC4CCOCC4)n2)[S+]([O-])CC3)CC1 (stereo not drawn) [Example 1.42, {2-[4-(4-chlorophenyl)-4-methoxypiperidin-1-yl]-5-oxo-6,7-dihydro-5H-5λ^4-thieno[3,2-d]pyrimidin-4-yl}-(tetrahydropyran-4-yl)-amine] |
| 3.5 nM | N#Cc1ccc(OC2CCN(c3nc4c(c(NC5(CO)CC5)n3)[S+]([O-])CC4)CC2)cc1 (stereo not drawn) [Example 1.43, 4-{1-[4-(1-hydroxymethylcyclopropylamino)-5-oxo-6,7-dihydro-5H-5λ^4-thieno[3,2-d]pyrimidin-2-yl]-piperidin-4-yloxy}-benzonitrile] |
| 2.7 nM | [O-][S+]1CCc2nc(N3CCC(c4nc5c(o4)CCCC5)CC3)nc(NC3CCOCC3)c21 (stereo not drawn) [Example 1.44] |
| 54 nM | CN1C[C@@H](Nc2nc(N3CCC(c4ccc(Cl)cc4)CC3)nc3c2S(=O)(=O)CC3)CCC1=O [Example 1.45, (S)-5-{2-[4-(4-chlorophenyl)-piperidin-1-yl]-5,5-dioxo-6,7-dihydro-5H-5λ^6-thieno[3,2-d]pyrimidin-4-ylamino}-1-methylpiperidin-2-one] |
| 4.3 nM | [O-][S+]1CCc2nc(N3CCC(c4ccc(Cl)cc4)CC3)nc(NC3(CO)CCC3)c21 (stereo not drawn) [Example 1.47, (1-{2-[4-(4-Chloro-phenyl)-piperidin-1-yl]-5-oxo-6,7-dihydro-5H-5λ^4-thieno[3.2-d]pyrimidin-4-yl-amino}-cyclobutyl)-methanol] |
